Experiments:
[1] = excess molar enthalpy (molar enthalpy of mixing); xn = mol fraction of the nth substance listed; conditions: 298.15 K, 100 kPa, Liquid, Power-compensation calorimetry
[2] = 298.15 K; 101.33 kPa; Liquid; Vibrating tube method

CCCC[N+]1(C)CCCC1.N#C[B-](C#N)(C#N)C#N [1-butyl-1-methylpyrrolidinium tetracyanoborate] + c1ccccc1
[1]
Conditions | excess molar enthalpy [kJ/mol]
x1 = 0.0138 | -0.0849
x1 = 0.0277 | -0.168
x1 = 0.0415 | -0.251
x1 = 0.0555 | -0.334
x1 = 0.0694 | -0.418
x1 = 0.0834 | -0.502
x1 = 0.0975 | -0.586
x1 = 0.1115 | -0.67
x1 = 0.1256 | -0.754
x1 = 0.1398 | -0.838
x1 = 0.1539 | -0.918
x1 = 0.1681 | -0.995
x1 = 0.1824 | -1.06
x1 = 0.1966 | -1.11
x1 = 0.2109 | -1.16
x1 = 0.2253 | -1.19
x1 = 0.2396 | -1.22
x1 = 0.2534 | -1.21
x1 = 0.254 | -1.23
x1 = 0.2685 | -1.24
x1 = 0.2767 | -1.24
x1 = 0.28 | -1.24
x1 = 0.3165 | -1.23
x1 = 0.3564 | -1.19
x1 = 0.3963 | -1.13
x1 = 0.4362 | -1.05
x1 = 0.4762 | -0.973
x1 = 0.5162 | -0.889
x1 = 0.5564 | -0.804
x1 = 0.5965 | -0.721
x1 = 0.6367 | -0.641
x1 = 0.6769 | -0.562
x1 = 0.7172 | -0.484
x1 = 0.7575 | -0.41
x1 = 0.7979 | -0.336
x1 = 0.8384 | -0.265
x1 = 0.8788 | -0.195
x1 = 0.9191 | -0.128
x1 = 0.9596 | -0.0624

CCO [ethanol]
Conditions | mass density [kg/m3]
[2] | 785.39

CCCC[N+]1(C)CCCC1.N#C[B-](C#N)(C#N)C#N [1-butyl-1-methylpyrrolidinium tetracyanoborate] + CCCO
[1]
Conditions | excess molar enthalpy [kJ/mol]
x1 = 0.014 | 0.217
x1 = 0.028 | 0.416
x1 = 0.042 | 0.598
x1 = 0.056 | 0.766
x1 = 0.07 | 0.922
x1 = 0.084 | 1.07
x1 = 0.098 | 1.2
x1 = 0.112 | 1.33
x1 = 0.126 | 1.44
x1 = 0.1399 | 1.55
x1 = 0.1539 | 1.65
x1 = 0.168 | 1.74
x1 = 0.1819 | 1.83
x1 = 0.1959 | 1.91
x1 = 0.21 | 1.98
x1 = 0.224 | 2.05
x1 = 0.2257 | 2.02
x1 = 0.238 | 2.11
x1 = 0.252 | 2.17
x1 = 0.2592 | 2.18
x1 = 0.264 | 2.21
x1 = 0.2983 | 2.31
x1 = 0.3374 | 2.4
x1 = 0.3765 | 2.45
x1 = 0.4156 | 2.46
x1 = 0.4547 | 2.44
x1 = 0.4938 | 2.4
x1 = 0.5329 | 2.33
x1 = 0.572 | 2.23
x1 = 0.611 | 2.11
x1 = 0.65 | 1.97
x1 = 0.6891 | 1.81
x1 = 0.7282 | 1.63
x1 = 0.7672 | 1.44
x1 = 0.8062 | 1.22
x1 = 0.8451 | 0.995
x1 = 0.8839 | 0.755
x1 = 0.9228 | 0.499
x1 = 0.9615 | 0.233

CCCC[N+]1(C)CCCC1.N#C[B-](C#N)(C#N)C#N [1-butyl-1-methylpyrrolidinium tetracyanoborate] + CO
[1]
Conditions | excess molar enthalpy [kJ/mol]
x1 = 0.013 | 0.108
x1 = 0.026 | 0.217
x1 = 0.039 | 0.327
x1 = 0.052 | 0.436
x1 = 0.065 | 0.54
x1 = 0.078 | 0.641
x1 = 0.091 | 0.736
x1 = 0.104 | 0.826
x1 = 0.117 | 0.91
x1 = 0.13 | 0.99
x1 = 0.1362 | 1.07
x1 = 0.143 | 1.06
x1 = 0.156 | 1.13
x1 = 0.1602 | 1.2
x1 = 0.169 | 1.2
x1 = 0.1775 | 1.24
x1 = 0.2003 | 1.4
x1 = 0.2404 | 1.55
x1 = 0.2805 | 1.67
x1 = 0.3207 | 1.75
x1 = 0.3608 | 1.81
x1 = 0.4009 | 1.84
x1 = 0.441 | 1.84
x1 = 0.4812 | 1.82
x1 = 0.5213 | 1.77
x1 = 0.5615 | 1.7
x1 = 0.6016 | 1.61
x1 = 0.6416 | 1.51
x1 = 0.6816 | 1.39
x1 = 0.7217 | 1.25
x1 = 0.7616 | 1.09
x1 = 0.8015 | 0.923
x1 = 0.8414 | 0.739
x1 = 0.8814 | 0.545
x1 = 0.9213 | 0.339
x1 = 0.9606 | 0.133

c1ccccc1 [benzene]
Conditions | mass density [kg/m3]
[2] | 873.57

CCCC[N+]1(C)CCCC1.N#C[B-](C#N)(C#N)C#N [1-butyl-1-methylpyrrolidinium tetracyanoborate] + c1ccsc1
[1]
Conditions | excess molar enthalpy [kJ/mol]
x1 = 0.0147 | -0.1
x1 = 0.0293 | -0.196
x1 = 0.0439 | -0.289
x1 = 0.0586 | -0.383
x1 = 0.0732 | -0.476
x1 = 0.0879 | -0.569
x1 = 0.1026 | -0.662
x1 = 0.1173 | -0.754
x1 = 0.1321 | -0.847
x1 = 0.1468 | -0.938
x1 = 0.1616 | -1.02
x1 = 0.1763 | -1.1
x1 = 0.1911 | -1.17
x1 = 0.2059 | -1.22
x1 = 0.2207 | -1.26
x1 = 0.2316 | -1.27
x1 = 0.2355 | -1.3
x1 = 0.2503 | -1.32
x1 = 0.2515 | -1.3
x1 = 0.2642 | -1.34
x1 = 0.2763 | -1.32
x1 = 0.316 | -1.31
x1 = 0.3559 | -1.27
x1 = 0.3957 | -1.21
x1 = 0.4356 | -1.14
x1 = 0.4756 | -1.06
x1 = 0.5155 | -0.975
x1 = 0.5556 | -0.89
x1 = 0.5958 | -0.804
x1 = 0.636 | -0.719
x1 = 0.6763 | -0.634
x1 = 0.7165 | -0.55
x1 = 0.757 | -0.466
x1 = 0.7974 | -0.384
x1 = 0.8378 | -0.304
x1 = 0.8782 | -0.225
x1 = 0.9188 | -0.147
x1 = 0.9595 | -0.0713
